Experimental findings from PubChem BioAssay (NCI) are described below.

Among the test systems are HCC-2998 colon; NCI-H226 lung; UACC-257 melanoma; HOP-62 NSCLC; OVCAR-3 ovarian; SW-620 colon; HCT-15 colon; UO-31 renal; RXF 393 renal.
Common to all, as to assay: inhibition of tumour cell growth, NCI panel, 48 h

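Where inhibition never reached the appropriate level, the endpoint shown equals the highest concentration tested. Otherwise, values were interpolated linearly from a five-concentration, 48-hour dose response in 96-well plates. At the GI50, growth is halved. The concentration for full growth arrest is given as TGI.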

For the compound `CCCCCCCCCC(=O)NC(Cc1ccc(O)cc1)C(=O)NCCCNCCCCNCCCNC(=O)[C@@H](N)CCCN=C(N)N` (stereo not given in full), the TGI is above 100 µM in the experiment on HCC-2998 colon; above 100 µM with NCI-H226 lung; above 100 µM in the experiment with UACC-257 melanoma; 69.5 µM in the experiment on HOP-62 NSCLC; above 100 µM with OVCAR-3 ovarian; above 100 µM with SW-620 colon. Moreover, the TGI in the experiment on HCT-15 colon and with UO-31 renal was above 100 µM each time.

Consider `O=C(O)c1ccc(Nc2nc3nn(Cc4ccccc4)cc3c(=O)s2)cc1`, for which the TGI in the experiment on HCC-2998 colon, with UACC-257 melanoma, with HOP-62 NSCLC, with OVCAR-3 ovarian, in the experiment with SW-620 colon and in the experiment on RXF 393 renal was above 100 µM each time. Moreover, the TGI with HCT-15 colon and in the experiment with UO-31 renal was above 100 µM each time.

For `OC12CCC3(O)c4ccccc4C3C1c1ccccc12` (stereo not given), the TGI with NCI-H226 lung, with UACC-257 melanoma, in the experiment on HOP-62 NSCLC, with SW-620 colon, in the experiment on RXF 393 renal and in the experiment on HCT-15 colon was above 100 µM in each case. The compound further gave a TGI with UO-31 renal above 100 µM.

Consider `C=Cc1c(C)c2cc3[nH]c(cc4nc(cc5nc(cc1[nH]2)C(C)=C5CCC(=O)N(CC)CC)C(CCC(=O)N(CC)CC)=C4C)c(C)c3C=C`, for which the TGI in the experiment with HCC-2998 colon, with UACC-257 melanoma, in the experiment with HOP-62 NSCLC, in the experiment with OVCAR-3 ovarian, in the experiment on SW-620 colon and in the experiment on RXF 393 renal was above 100 µM in each case. Also, the TGI with HCT-15 colon and in the experiment on UO-31 renal was above 100 µM each time.

In the case of `O=C(/C(=N/Nc1ccccc1)c1ccc([N+](=O)[O-])cc1)c1ccc([N+](=O)[O-])cc1`, the TGI in the experiment on HCC-2998 colon, in the experiment on UACC-257 melanoma, in the experiment on OVCAR-3 ovarian, in the experiment on SW-620 colon, in the experiment on RXF 393 renal and in the experiment on HCT-15 colon was above 100 µM each time. Besides, the TGI in the experiment on UO-31 renal is above 100 µM.

For the compound `COc1cc(-c2cc3ncccc3c3[nH]c(=O)c4cccnc4c23)cc(OC)c1OC`, the GI50 was 2.08 µM with HCC-2998 colon; 23.6 µM with NCI-H226 lung; 7.76 µM in the experiment with HOP-62 NSCLC; 0.329 µM with OVCAR-3 ovarian; 0.493 µM in the experiment with SW-620 colon; 0.818 µM in the experiment with RXF 393 renal. Also, the GI50 was 0.683 µM in the experiment on HCT-15 colon and 1.09 µM in the experiment with UO-31 renal. In addition, the TGI with HCC-2998 colon was above 100 µM; in the experiment with NCI-H226 lung, above 100 µM; in the experiment on HOP-62 NSCLC, above 100 µM; in the experiment with OVCAR-3 ovarian it was above 100 µM; in the experiment on SW-620 colon, above 100 µM; in the experiment with RXF 393 renal, 26.2 µM. Also, the TGI with HCT-15 colon and with UO-31 renal was above 100 µM in each case.

In the case of `Cc1cc2c(cc1CO)N1Cc3cc(C)c(CO)cc3N(C2)C1`, the TGI in the experiment with HCC-2998 colon, in the experiment on NCI-H226 lung, in the experiment with HOP-62 NSCLC, with OVCAR-3 ovarian, in the experiment on SW-620 colon and in the experiment on RXF 393 renal was above 100 µM in each case.

Take `COc1ccc(-c2nc(N)c(C#N)c3c2CCOc2c-3ccc3ccccc23)cc1`: the GI50 in the experiment with HCC-2998 colon is 56.1 µM; in the experiment on NCI-H226 lung, 18 µM; in the experiment with UACC-257 melanoma it was 13.7 µM; in the experiment on HOP-62 NSCLC it was 20.8 µM; in the experiment with RXF 393 renal, 1.6 µM; in the experiment on HCT-15 colon, 59.4 µM. For the same compound, in the experiment on UO-31 renal, the GI50 was 49.9 µM. The TGI was above 100 µM in the experiment on HCC-2998 colon; 58.2 µM in the experiment on NCI-H226 lung; 37.8 µM in the experiment with UACC-257 melanoma; 49.7 µM in the experiment on HOP-62 NSCLC; 31.1 µM with RXF 393 renal; above 100 µM in the experiment on HCT-15 colon. The same compound gave a TGI with UO-31 renal above 100 µM.

On to `O=C(NC(=O)c1cn(CCN2CCN(C(=O)NCCCCCCNC(=O)N3CCN(CCn4cc(C(=O)NC(=O)OCc5ccccc5)c(=O)[nH]c4=O)CC3)CC2)c(=O)[nH]c1=O)OCc1ccccc1`, for which the TGI in the experiment with UACC-257 melanoma, with HOP-62 NSCLC, in the experiment with OVCAR-3 ovarian, with SW-620 colon, with RXF 393 renal and in the experiment on HCT-15 colon was above 100 µM in each case. The TGI in the experiment with UO-31 renal is above 100 µM.

As for `CC(C)(C)c1nc(-c2cccc(NS(=O)(=O)c3c(F)cccc3F)c2F)c(-c2ccnc(N)n2)s1`, the GI50 was 24.1 µM in the experiment with HCC-2998 colon; 32.9 µM in the experiment on NCI-H226 lung; 47.2 µM with HOP-62 NSCLC; 35.6 µM in the experiment on OVCAR-3 ovarian; 23.9 µM in the experiment on SW-620 colon; 22.2 µM in the experiment on HCT-15 colon. For the same compound, the GI50 in the experiment on UO-31 renal is 0.46 µM. The TGI with HCC-2998 colon is 86.7 µM; in the experiment with NCI-H226 lung it was above 100 µM; in the experiment with HOP-62 NSCLC, above 100 µM; in the experiment on OVCAR-3 ovarian it was above 100 µM; in the experiment on SW-620 colon, above 100 µM; in the experiment on HCT-15 colon, 81.1 µM. Also, the TGI in the experiment with UO-31 renal is above 100 µM.
